Key:
annual bluegrass = assay: Test D preemergence test; format: in vivo, Poa annua; conditions: scale 0 to 100
Source text: (§1) Seeds of plant species selected from annual bluegrass (Poa annua), blackgrass (Alopecurus myosuroides), downy bromegrass (Bromus tectorum), field violet (Viola arvensis), green foxtail (Setaria viridis), Italian ryegrass (Lolium multiflorum), littleseed canarygrass (Phalaris minor), spring wheat (Triticum aestivum), wild oat (Avena fatua), […]), winter barley (Hordeum vulgare), and winter wheat (Triticum aestivum) were planted and treated preemergence with test chemicals formulated in a non-phytotoxic solvent mixture which included a surfactant. […] A dash (-) response means no test result.

soybean = assay: Test G preemergence test; format: in vivo, Glycine max; conditions: scale 0 to 100
blackgrass = assay: Test D preemergence test; format: in vivo, Alopecurus myosuroides; conditions: scale 0 to 100
Source text: as §1

yellow nutsedge = assay: Test G preemergence test; format: in vivo, Cyperus esculentus; conditions: scale 0 to 100
goosegrass = assay: Test G preemergence test; format: in vivo, Eleusine indica; conditions: scale 0 to 100
itchgrass = assay: Test G preemergence test; format: in vivo, Rottboellia cochinchinensis; conditions: scale 0 to 100
corn = assay: Test G preemergence test; format: in vivo, Zea mays; conditions: scale 0 to 100
cotton = assay: Test G preemergence test; format: in vivo, Gossypium hirsutum; conditions: scale 0 to 100
millet = assay: Test G preemergence test; format: in vivo, Panicum miliaceum; conditions: scale 0 to 100
sorghum = assay: Test G preemergence test; format: in vivo, Sorghum vulgare; conditions: scale 0 to 100
spring wheat = assay: Test D preemergence test; format: in vivo, Triticum aestivum; conditions: scale 0 to 100
Source text: as §1

winter wheat = assay: Test D preemergence test; format: in vivo, Triticum aestivum; conditions: scale 0 to 100
Source text: as §1

green foxtail = assay: Test D preemergence test; format: in vivo, Setaria viridis; conditions: scale 0 to 100
Source text: as §1

duck salad = assay: Test B flooded paddy test; format: in vivo, Heteranthera limosa; conditions: Flood, 250 g ai/ha, 13 to 15 days; scale 0 to 100, 0 no effect, 100 complete control
Source text: (§2) At time of treatment, test pots were flooded to 3 cm above the soil surface, treated by application of test compounds directly to the paddy water, and then maintained at that water depth for the duration of the test. Treated plants and controls were maintained in a greenhouse for 13 to 15 days, after which time all species were compared to controls and visually evaluated. […] A dash (-) response means no test result.

barnyardgrass [1] = assay: Test G preemergence test; format: in vivo, Echinochloa crus-galli; conditions: scale 0 to 100
wild oat = assay: Test D preemergence test; format: in vivo, Avena fatua; conditions: scale 0 to 100
Source text: as §1

field sandbur = assay: Test G preemergence test; format: in vivo, Cenchrus incertus; conditions: scale 0 to 100
eastern black nightshade = assay: Test G preemergence test; format: in vivo, Solanum ptycanthum; conditions: scale 0 to 100
tall waterhemp = assay: Test G preemergence test; format: in vivo, Amaranthus tuberculatos; conditions: scale 0 to 100
barnyardgrass [2] = assay: Test B flooded paddy test; format: in vivo, Echinochloa crus-galli; conditions: Flood, 250 g ai/ha, 13 to 15 days; scale 0 to 100, 0 no effect, 100 complete control
Source text: as §2

winter barley = assay: Test D preemergence test; format: in vivo, Hordeum vulgare
Source text: as §1

littleseed canarygrass = assay: Test D preemergence test; format: in vivo, Phalaris minor; conditions: scale 0 to 100
Source text: as §1

lambsquarters = assay: Test G preemergence test; format: in vivo, Chenopodium album; conditions: scale 0 to 100
giant foxtail = assay: Test G preemergence test; format: in vivo, Setaria faberii; conditions: scale 0 to 100
Italian ryegrass = assay: Test D preemergence test; format: in vivo, Lolium multiflorum; conditions: scale 0 to 100
Source text: as §1

Cc1cc[n+]([O-])c([S+]([O-])Cc2c(C(F)(F)F)nn(C)c2OC(F)F)c1 (stereo not shown) [Compound 1]
75: Plant response rating, Bluegrass (annual bluegrass; 62 g ai/ha) | Plant response rating, Nutsedge, Yellow (yellow nutsedge; 125 g ai/ha)
25: Plant response rating, Soybean (soybean; 250 g ai/ha) | Plant response rating, Millet (millet; 62 g ai/ha)
15: Plant response rating, Cotton (cotton; 125 g ai/ha)
70: Plant response rating, Blackgrass (blackgrass; 125 g ai/ha) | Plant response rating, Goosegrass (goosegrass; 31 g ai/ha)
30: Plant response rating, Wheat, Spring (spring wheat; 125 g ai/ha) | Plant response rating, Nightshade (eastern black nightshade; 62 g ai/ha) | Plant response rating, Ryegrass, Italian (Italian ryegrass; 125 g ai/ha)
65: Plant response rating, Barnyardgrass (barnyardgrass [1]; 62 g ai/ha) | Plant response rating, Sandbur (field sandbur; 125 g ai/ha)
50: Plant response rating, Sorghum (sorghum; 250 g ai/ha) | Plant response rating, Wheat, Winter (winter wheat; 125 g ai/ha) | Plant response rating, Barley (winter barley; preemergence, 250 g ai/ha, scale 0 (no effect) to 100 (complete control))
20: Plant response rating, Soybean (soybean; 62 g ai/ha) | Plant response rating, Soybean (soybean; 125 g ai/ha) | Plant response rating, Itchgrass (itchgrass; 31 g ai/ha) | Plant response rating, Cotton (cotton; 250 g ai/ha) | Plant response rating, Millet (millet; 125 g ai/ha) | Plant response rating, Barnyardgrass (barnyardgrass [1]; 31 g ai/ha) | Plant response rating, Oat, Wild (wild oat; 125 g ai/ha) | Plant response rating, Foxtail, Giant (giant foxtail; 31 g ai/ha) | Plant response rating, Ryegrass, Italian (Italian ryegrass; 62 g ai/ha)
45: Plant response rating, Corn (corn; 250 g ai/ha) | Plant response rating, Wheat, Spring (spring wheat; 250 g ai/ha)
90: Plant response rating, Bluegrass (annual bluegrass; 125 g ai/ha) | Plant response rating, Goosegrass (goosegrass; 62 g ai/ha) | Plant response rating, Ducksalad (duck salad)
100: Plant response rating, Bluegrass (annual bluegrass; 250 g ai/ha) | Plant response rating, Blackgrass (blackgrass; 250 g ai/ha) | Plant response rating, Goosegrass (goosegrass; 125 g ai/ha) | Plant response rating, Goosegrass (goosegrass; 250 g ai/ha) | Plant response rating, Millet (millet; 250 g ai/ha) | Plant response rating, Foxtail, Green (green foxtail; 125 g ai/ha) | Plant response rating, Foxtail, Green (green foxtail; 250 g ai/ha) | Plant response rating, Barnyardgrass (barnyardgrass [1]; 125 g ai/ha) | Plant response rating, Barnyardgrass (barnyardgrass [1]; 250 g ai/ha) | Plant response rating, Sandbur (field sandbur; 250 g ai/ha) | Plant response rating, Nightshade (eastern black nightshade; 125 g ai/ha) | Plant response rating, Nightshade (eastern black nightshade; 250 g ai/ha) | Plant response rating, Waterhemp (tall waterhemp; 62 g ai/ha) | Plant response rating, Waterhemp (tall waterhemp; 125 g ai/ha) | Plant response rating, Waterhemp (tall waterhemp; 250 g ai/ha) | Plant response rating, Canarygrass (littleseed canarygrass; 62 g ai/ha) | Plant response rating, Canarygrass (littleseed canarygrass; 250 g ai/ha) | Plant response rating, Lambsquarters (lambsquarters; 62 g ai/ha) | Plant response rating, Lambsquarters (lambsquarters; 125 g ai/ha) | Plant response rating, Lambsquarters (lambsquarters; 250 g ai/ha) | Plant response rating, Foxtail, Giant (giant foxtail; 125 g ai/ha) | Plant response rating, Foxtail, Giant (giant foxtail; 250 g ai/ha)
5: Plant response rating, Blackgrass (blackgrass; 31 g ai/ha) | Plant response rating, Corn (corn; 62 g ai/ha) | Plant response rating, Wheat, Winter (winter wheat; 62 g ai/ha)
40: Plant response rating, Nutsedge, Yellow (yellow nutsedge; 250 g ai/ha) | Plant response rating, Itchgrass (itchgrass; 125 g ai/ha) | Plant response rating, Sorghum (sorghum; 125 g ai/ha) | Plant response rating, Oat, Wild (wild oat; 250 g ai/ha) | Plant response rating, Sandbur (field sandbur; 62 g ai/ha) | Plant response rating, Waterhemp (tall waterhemp; 31 g ai/ha) | Plant response rating, Barley (winter barley; Preemergence, 125 g ai/ha, scale 0 to 100)
95: Plant response rating, Foxtail, Green (green foxtail; 62 g ai/ha) | Plant response rating, Foxtail, Giant (giant foxtail; 62 g ai/ha) | Plant response rating, Ryegrass, Italian (Italian ryegrass; 250 g ai/ha)
0: Plant response rating, Bluegrass (annual bluegrass; 31 g ai/ha) | Plant response rating, Soybean (soybean; 31 g ai/ha) | Plant response rating, Nutsedge, Yellow (yellow nutsedge; 31 g ai/ha) | Plant response rating, Corn (corn; 31 g ai/ha) | Plant response rating, Cotton (cotton; 31 g ai/ha) | Plant response rating, Millet (millet; 31 g ai/ha) | Plant response rating, Sorghum (sorghum; 31 g ai/ha) | Plant response rating, Sorghum (sorghum; 62 g ai/ha) | Plant response rating, Wheat, Spring (spring wheat; 31 g ai/ha) | Plant response rating, Wheat, Spring (spring wheat; 62 g ai/ha) | Plant response rating, Wheat, Winter (winter wheat; 31 g ai/ha) | Plant response rating, Foxtail, Green (green foxtail; 31 g ai/ha) | Plant response rating, Oat, Wild (wild oat; 31 g ai/ha) | Plant response rating, Oat, Wild (wild oat; 62 g ai/ha) | Plant response rating, Sandbur (field sandbur; 31 g ai/ha) | Plant response rating, Nightshade (eastern black nightshade; 31 g ai/ha) | Plant response rating, Barley (winter barley; Preemergence, 62 g ai/ha, scale 0 to 100) | Plant response rating, Barley (winter barley; Preemergence, 31 g ai/ha, scale 0 to 100) | Plant response rating, Canarygrass (littleseed canarygrass; 31 g ai/ha) | Plant response rating, Lambsquarters (lambsquarters; 31 g ai/ha) | Plant response rating, Ryegrass, Italian (Italian ryegrass; 31 g ai/ha)
10: Plant response rating, Corn (corn; 125 g ai/ha) | Plant response rating, Cotton (cotton; 62 g ai/ha)
60: Plant response rating, Blackgrass (blackgrass; 62 g ai/ha) | Plant response rating, Itchgrass (itchgrass; 250 g ai/ha) | Plant response rating, Wheat, Winter (winter wheat; 250 g ai/ha)
35: Plant response rating, Nutsedge, Yellow (yellow nutsedge; 62 g ai/ha) | Plant response rating, Itchgrass (itchgrass; 62 g ai/ha)
80: Plant response rating, Barnyardgrass (barnyardgrass [2]) | Plant response rating, Canarygrass (littleseed canarygrass; 125 g ai/ha)
